Source: patent publication US9969744B2, “Compounds for use in cognition improvement” (FUNDACIÓN PARA LA INVESTIGACIÓN MÉDICA APLICADA, priority 2014, dated 2018)

Tests used:
pCREB = test: In-vivo pCREB in hippocampus of wild type mice; settings: 1 h after single dose 40 mg/kg i.p.
Method: (§1) Another group of animals received the vehicle (1/1/8, v:v:v, DMSO/Tween 20/saline). One hour later, mice were sacrificed by cervical dislocation and their hippocampus was quickly dissected from the brains. Total tissue homogenates were obtained by homogenizing the hippocampus in a cold lysis buffer with protease inhibitors (0.2 M NaCl, 0.1 M HEPES, 10% glycerol, 200 mM NaF, 2 mM Na4P2O7, 5 mM EDTA, 1 mM EGTA, 2 mM DTT, 0.5 mM PMSF, 1 mM Na3VO4 and Complete Protease Inhibitor Cocktail, Roche Diagnostics). The homogenate was then centrifuged at 14,000×g at 4° C. for 20 min and the supernatant aliquoted and stored at −80° C. Total protein concentrations were determined using the BioRad Bradford protein assay (BioRad Laboratories). Protein samples were analyzed as described in the “in vitro” section.

[1] = test system: carboxyl terminal fragment AβPP (C99); test: AD-related markers in Tg2576 neurons: APP processing (C99); assay type: cell-based, mouse; settings: Tg2576 primary neurons, compound concentration 50 nM
Method: The effects of the compounds on amyloid pathology were analysed in primary cultures after 21 days in-vitro (DIV) of neurons derived from the hippocampus and cortex of Tg2576 mouse embryos. Tg2576 mice express the human 695-aa isoform of APP (hAPP) containing the Swedish double mutation, which favours A3 production. Neurons were treated for two days and collected at day 3, 24 h after the last treatment. First it was analysed the effect of the compounds on hAPP processing by the amyloidogenic pathway by measuring the carboxyl terminal fragment AβPP (C99), which is the precursor of Aβ42. In this case the reported EC50, Table 2 (below), means a 50% decrease in C99 levels over basal (vehicle, no treatment).
To analyze APP-derived fragments and p-Tau levels in primary neuronal cultures, cells were collected in a buffer containing SDS (2%), Tris-HCl (10 mM, pH 7.4), protease inhibitors (1 mM phenylmethylsulfonyl fluoride (PMSF) and Complete Protease Inhibitor Cocktail: Roche Diagnostics) and phosphatase inhibitors (0.1 mM Na3VO4 and 1 mM NaF). The homogenates were sonicated for 2 min and centrifuged at 100,000×g for 1 h. Aliquots of the supernatant were frozen at […] and their protein concentrations determined by the Bradford method using the Bio-Rad protein assay (Bio-Rad, Hercules, Calif., USA). […]

AcH3 = test: In-vivo AcH3 in hippocampus of wild type mice; settings: 1 h after single dose 40 mg/kg i.p.
Method: as §1

[2] = test system: acetylated histone 3 at Lys9 (AcH3K9); test: HDAC activity using SHSY-5Y cell line (Western blot, histone 3 acetylation); assay type: cell-based, human; settings: SHSY-5Y cells, 24 hours
Method: HDAC inhibition leads to the corresponding functional response, increase in AcH3 level. Therefore, the cellular assay to conclude HDAC activity was assessed by Western blot analysis using specific antibodies against acetylated histone 3 at Lys9 (AcH3K9). Cell cultures were treated at 100 nM, 500 nM, 1 μM and/or 5 μM with compounds of the invention or known PDE inhibitors during 24 hours and, Table 1 (below) describes the functional activity: histone 3 acetylation level (AcH3) vs basal (no treatment).
A human neuroblastoma cell line (SHSY-5Y) was used. Cell line was obtained from ATCC (CRL-2266) and cultured in 35 mm plates (Becton Dickinson, NJ).
The cells were grown to 90% confluence at 37° C. in an atmosphere of 5% CO2 and in Dulbecco's modified Eagle's medium supplemented with Glutamax (Gibco, Invitrogen, CA), 100 units/ml penicillin/streptomycin, 1×MEM nonessential amino acids and 10% fetal bovine serum (Gibco, Invitrogen, CA).
Cells were collected and sonicated in a buffer containing a cold lysis buffer with protease inhibitors (0.2 M NaCl, 0.1 M HEPES (4-(2-hydroxyethyl)-1-piperazineethanesulfonic acid), 10% glycerol, 200 mM NaF, 2 mM Na4P2O7, 5 mM EDTA (ethylenediaminetetraacetic acid), 1 mM EGTA (ethylene glycol tetraacetic acid), 2 mM DTT (dithiothreitol), 0.5 mM PMSF (phenylmethylsulfonyl fluoride), 1 mM Na3VO4 and Complete Protease Inhibitor Cocktail, Roche Diagnostics), centrifuged at 14,000×g 4° C. for 20 min and the supernatant was aliquoted and stored at −80° C. Total protein concentrations were determined using the BioRad Bradford protein assay (BioRad Laboratories).
Protein samples were mixed with Laemmli sample buffer, resolved onto Sodium Dodecyl Sulfate (SDS)-polyacrylamide gels and transferred to nitrocellulose membrane. The membranes were blocked with 5% milk, 0.05% Tween-20 in PBS (Phosphate-Buffered Saline) or TBS (Tris-Buffered Saline) followed by overnight incubation with the following primary antibodies: rabbit polyclonal anti-acetylated Histone 3 (acetyl K9) (Cell Signalling Technology), rabbit polyclonal anti-total Histone 3 (Millipore), in the corresponding buffer. All the antibodies were used at 1:1000 dilution except the mouse monoclonal anti-β-actin which was used at 1:50.000. Following two washes in TBS/Tween20 and one wash in TBS alone, immunolabeled protein bands were detected by using HRP-conjugated anti-rabbit or anti-mouse antibody (Santa Cruz Biotechnology; dilution 1:5.000) following an enhanced chemiluminescence system (ECL, GE Healthcare Bioscience, Buckinghamshire, UK), and autoradiographic exposure to HyperfilmtECL (GE Healthcare Bioscience). Quantity One™ software v.4.6.3 (Bio-Rad) was used for quantification.

CCCc1nn(C)c2c(=O)[nH]c(-c3cc(Cc4ccc(C(=O)Nc5ccccc5N)cc4)ccc3OCC)nc12 [Example 1-11, N-(2-aminophenyl)-4-[[4-ethoxy-3-(1-methyl-7-oxo-3-propyl-6H-pyrazolo[4,3-d]pyrimidin-5-yl)phenyl]methyl]benzamide]
pCREB increment vs basal (pCREB): +++ (basal x2≤(+++)<basal x3)
decrease in C99 levels over basal [1]: ++ (basal x0.2≤(++)<basal x0.4 (reduction between 20% and 40%))
AcH3 increment vs basal (AcH3): ++ (basal x1≤(++)<basal x2)
AcH3: increment in Histone 3 acetylation level vs basal ([2]; compound concentration 100 nM): ++ (basal x1.4≤(++)<basal x2)
AcH3: increment in Histone 3 acetylation level vs basal ([2]; compound concentration 500 nM): ++ (basal x1.4≤(++)<basal x2)
AcH3: increment in Histone 3 acetylation level vs basal ([2]; compound concentration 1 μM): +++ (basal x2≤(+++)<basal x3)
